Columns and labels:
[1] = test system: SDM103T2 cells; assay: SDM103T2 proliferation and cell viability assay (CTG); type: cell-based; conditions: SDM103T2 cell line, 144 hours
Method: SDM103T2 cells were trypsinised, counted and plated at the specified cell density in 200 μl of growth media in 96 well flat bottom tissue culture treated plates. The plated cells were incubated overnight at 37° C., 5% CO2 before being treated with compounds in triplicate for each assay point. 50 μl of the serially diluted compound was added to each well giving a final DMSO concentration of 0.5% per well and a total volume of 250 μl per well. The treated cells were incubated for 144 hours (6 days) at 37° C., 5% CO2. Following compound treatment the remaining viable cells were detected using the Promega CellTiter-Glo 2.0 assay as follows: 150 μl of media was removed from each of the wells to be assayed and 100 μl of room temperature CellTiter-Glo 2.0 reagent was added. The plate was placed on an orbital shaker at 500 rpm at room temperature for 2 minutes, and then incubated without shaking for a further 10 minutes at room temperature. 150 μl of cell lysate was removed from each well and dispensed into a single well of a white opaque 96 well plate. Luminescence at 545 nm was read using a BMG CLARIOstar plate reader. The luminescent signal was directly proportional to number of viable cells, the percent of viable cells relative to the DMSO control was then calculated for each assay point. Percent viability relative to DMSO control was plotted against compound concentration and a curve fitted with non-linear regression in GraphPad Prism software. EC50 and IC50 values were calculated using GraphPad Prism software as follows: For EC50 values a non-constrained four-parameter logistic curve fit was used (Sigmoidal, 4PL, X is concentration). For Absolute IC50 values the baseline was constrained to Y=0 (Absolute IC50, X is concentration). Area Under the Curve (AUC): Prism computes area-under-the-curve by the trapezoidal method. The analysis sees a fitted curve as simply a series of connected XY points. Prism simply computes the area under the “curve” defined by connecting the points by straight lines. The units of the AUC are the units of the Y axis times units of the X axis.

[2] = target: TEAD1 (Homo sapiens, UniProt P28347); assay: TEAD thermal shift assay (TSA); type: binding
From the text: (§1) Thermal shift assay (TSA) is a biophysical method to evaluate stability of proteins with change in temperature. The assay measures thermal denaturation temperature in varying conditions such as different drug concentration. For this example, fluorogenic dye was used that bind to unfolded proteins. SYPRO Orange binds non-specifically to hydrophobic surfaces, and water strongly quenches its fluorescence. When the protein unfolds, the exposed hydrophobic surfaces bind the dye, resulting in an increase in fluorescence by excluding water. Detergent micelles also bind the dye and increase background noise dramatically. Binding of small molecules to proteins leads to a stabilization against to thermal denaturation with the degree of thermal stabilization proportional to the strength of binding.
(§2) The study described in this example investigated the change in melting temperature (ΔTm) of TEAD isoforms 1˜4 when treated with TEAD inhibitors. Compound 1-1-a known strong TEAD1 and weak TEAD2 inhibitor; as well as Compound 1-4-a pan-TEAD inhibitor were used as controls.
(§3) Tris-HCL was dissolved in 5 mL of Cell culture grade water and allowed to dissolve completely. The pH was adjusted to 8 using NaOH. Additional assay buffer components were added in the order listed above. The buffer was mixed slowly.
(§4) Assay buffer was prepared according to the procedures outlined above and dispensed into test wells. Spyro orange was added to a concentration of 5× in the assay buffer, followed by test compound stock solution which was added to a concentration of 10 μM or 30 μM in the assay buffer.
(§5) The melt cycle was performed in Bio-RAD PCR instrument from 20-95° C. with ramp rate of 1° C./min.

[3] = target: TEAD2 (Homo sapiens, UniProt Q15562); assay: TEAD thermal shift assay (TSA); type: binding
From the text: as §1, §2, §3, §4, §5

[4] = target: TEAD3 (Homo sapiens, UniProt Q99594); assay: TEAD thermal shift assay (TSA); type: binding
From the text: as §1, §2, §3, §4, §5

[5] = target: TEAD4 (Homo sapiens, UniProt Q15561); assay: TEAD thermal shift assay (TSA); type: binding
From the text: as §1, §2, §3, §4, §5

[6] = test system: NCI-H226 xenograft; assay: Inhibition of mouse xenograft NCI-H226 tumors; type: in vivo, BALB/c nude mice; conditions: Day 27; 3 mg/kg, p.o., QD
From the text: This study evaluated the in vivo therapeutic efficacy of TEAD inhibitors in the treatment of the subcutaneous lung cancer NCI-H226 xenograft model in female BALB/c nude mice.
• ANOVA Analysis of variance • BW Body weight • BWL Body weight loss • FFPE Formalin fixed paraffin embedded • IACUC Institutional animal care and use committee • MTV Mean tumor volume • N/A Not available or not applicable • p.o. Oral (ly) • QD Once a day • REG REG=[(T0−Ti)/T0]×100%; • Ti as the mean tumor volume of the treatment group on the measurement day; • T0 as the mean tumor volume of the treatment group on Day 0. • ROA Route of administration • RT Room temperature • RTV Relative tumor volume • SD Standard deviation • SEM Standard error of mean • SOC Standard of care used in clinical setting for a specific disease • TBD To be determined • T/C The Ti/Ci value (%): T/C %=Ti/Ci×100; • Ti and Ci are the mean tumor volumes of the treatment and control groups, respectively, on a given day. • TGI Tumor growth inhibition; TGI %=(1−Ti/Ci)×100; • Ti and Ci are the mean tumor volumes of the treatment and control groups, respectively, on a given day. • TV Tumor volume • PK/PD Pharmacokinetics/Pharmacodynamics • ΔInhibition Mean % ΔInhibition=((Ci−C0)−(Ti−T0))/(Ci−C0)*100% • Ti and Ci are the mean tumor volumes of the treatment and control groups, respectively, on a given day. T0 and C0 as the mean tumor volumes of the treatment and vehicle groups on Day 0.
• Species Mus musculus • Strain Balb/c nude • Supplier GemPharmatech Co., Ltd • Gender Female • No. of Animals Ordered 68 (45 plus 23 spare) • No. of Animals Assigned 45 • to Study • Average Age of Animals 6-8 weeks • at Study Initiation
The NCI-H226 cells (CL-00364) cancer cells were maintained in vitro with RPMI1640 medium supplemented with 10% fetal bovine serum at 37° C. in an atmosphere of 5% CO2 in the air. The cells in exponential growth phase were harvested and quantitated by cell counter before tumor inoculation.
Each mouse was inoculated subcutaneously in the right front flank region with NCI-H226 tumor cells (1×10^7) in 0.2 ml of PBS mixed with Matrigel (1:1) for tumor development.
The randomization was performed when the mean tumor size reached 138.81 mm^3. 45 mice were enrolled in the study. All animals were randomly allocated to 9 study groups, 5 mice in each group. Randomization was performed based on “Matched distribution” method/“Stratified” method (StudyDirector™ software, version 3.1.399.19)/randomized block design. The date of randomization was denoted as day 0.
The treatment was initiated on the same day of randomization (day 0) per study design.
After tumor cells inoculation, the animals were checked daily for morbidity and mortality. During routine monitoring, the animals were checked for any effects of tumor growth and treatments on behavior such as mobility, food and water consumption, body weight gain/loss (Body weights were measured twice per week after randomization), eye/hair matting and any other abnormalities. Mortality and observed clinical signs were recorded for individual animals in detail.
Tumor volumes were measured twice per week after randomization in two dimensions using a caliper, and the volume was expressed in mm^3 using the formula: “V=(L×W×W)/2, where V is tumor volume, L is tumor length (the longest tumor dimension) and W is tumor width (the longest tumor dimension perpendicular to L). Dosing as well as tumor and body weight measurements were conducted in a Laminar Flow Cabinet.
To compare tumor volumes of different groups at a pre-specified day, Bartlett's test was first used to check the assumption of homogeneity of variance across all groups. When the p-value of Bartlett's test was >=0.05, one-way ANOVA was performed to test overall equality of means across all groups. […]

[7] = test system: BHY cells; assay: BHY proliferation and cell viability assay (CTG); type: cell-based; conditions: BHY cell line
Method: BHY cells were trypsinised, counted and plated at the specified cell density in 200 μl of growth media in 96 well flat bottom tissue culture treated plates. The plated cells were incubated overnight at 37° C., 5% CO2 before being treated with compounds in triplicate for each assay point. 50 μl of the serially diluted compound was added to each well giving a final DMSO concentration of 0.5% per well and a total volume of 250 μl per well. The treated cells were incubated for 144 hours (6 days) at 37° C., 5% CO2. Following compound treatment, the remaining viable cells were detected using the Promega CellTiter-Glo 2.0 assay as follows: 150 μl of media was removed from each of the wells to be assayed and 100 μl of room temperature CellTiter-Glo 2.0 reagent was added. The plate was placed on an orbital shaker at 500 rpm at room temperature for 2 minutes, and then incubated without shaking for a further 10 minutes at room temperature. 150 μl of cell lysate was removed from each well and dispensed into a single well of a white opaque 96 well plate. Luminescence at 545 nm was read using a BMG CLARIOstar plate reader. The luminescent signal was directly proportional to number of viable cells, the percent of viable cells relative to the DMSO control was then calculated for each assay point. Percent viability relative to DMSO control was plotted against compound concentration and a curve fitted with non-linear regression in GraphPad
Prism software. EC50 and IC50 values are calculated using GraphPad Prism software as follows: For EC50 values, a non-constrained four-parameter logistic curve fit was used (Sigmoidal, 4PL, X is concentration). For Absolute IC50 values the baseline was constrained to Y=0 (Absolute IC50, X is concentration). Area Under the Curve (AUC): Prism computes area-under-the-curve by the trapezoidal method. The analysis sees a fitted curve as simply a series of connected XY points. Prism simply computes the area under the “curve” defined by connecting the points by straight lines. The units of the AUC are the units of the Y axis times units of the X axis.

[8] = test system: LOU-NH91 cells; assay: LOU-NH91 proliferation and cell viability assay (CTG); type: cell-based; conditions: LOU-NH91 cell line, 216 hours
Method: LOU-NH91 cells were trypsinised, counted and plated at the specified cell density in 200 μl of growth media in 96 well flat bottom tissue culture treated plates. The plated cells were incubated overnight at 37° C., 5% CO2 before being treated with compounds in triplicate for each assay point. 50 μl of the serially diluted compound was added to each well giving a final DMSO concentration of 0.5% per well and a total volume of 250 μl per well. The treated cells were incubated for 216 hours (9 days) at 37° C., 5% CO2. Following compound treatment, the remaining viable cells were detected using the Promega CellTiter-Glo 2.0 assay as follows: 150 μl of media was removed from each of the wells to be assayed and 100 μl of room temperature CellTiter-Glo 2.0 reagent was added. The plate was placed on an orbital shaker at 500 rpm at room temperature for 2 minutes, and then incubated without shaking for a further 10 minutes at room temperature. 150 μl of cell lysate was removed from each well and dispensed into a single well of a white opaque 96 well plate. Luminescence at 545 nm was read using a BMG CLARIOstar plate reader. The luminescent signal was directly proportional to number of viable cells, the percent of viable cells relative to the DMSO control was then calculated for each assay point. Percent viability relative to DMSO control was plotted against compound concentration and a curve fitted with non-linear regression in GraphPad Prism software. EC50 and IC50 values were calculated using GraphPad Prism software as follows: For EC50 values a non-constrained four-parameter logistic curve fit was used (Sigmoidal, 4PL, X is concentration). For Absolute IC50 values the baseline was constrained to Y=0 (Absolute IC50, X is concentration). Area Under the Curve (AUC): Prism computes area-under-the-curve by the trapezoidal method. The analysis sees a fitted curve as simply a series of connected XY points. Prism simply computes the area under the “curve” defined by connecting the points by straight lines. The units of the AUC are the units of the Y axis times units of the X axis.

[9] = ratio of protein to compound 1:1
[10] = ratio of protein to compound 1:3

Chain of TEAD1 (P28347 whole entry): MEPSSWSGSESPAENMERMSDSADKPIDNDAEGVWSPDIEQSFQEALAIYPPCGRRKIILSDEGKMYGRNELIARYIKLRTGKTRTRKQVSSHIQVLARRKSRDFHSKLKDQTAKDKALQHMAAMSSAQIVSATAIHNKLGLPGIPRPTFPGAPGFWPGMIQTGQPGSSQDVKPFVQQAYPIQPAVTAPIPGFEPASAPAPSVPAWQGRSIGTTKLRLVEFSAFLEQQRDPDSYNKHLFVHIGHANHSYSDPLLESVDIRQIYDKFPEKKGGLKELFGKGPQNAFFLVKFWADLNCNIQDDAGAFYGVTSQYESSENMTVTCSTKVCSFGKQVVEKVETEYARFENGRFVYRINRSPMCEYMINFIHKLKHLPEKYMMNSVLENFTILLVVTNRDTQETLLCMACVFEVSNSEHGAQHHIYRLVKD
Chain of TEAD2 (Q15562 whole entry): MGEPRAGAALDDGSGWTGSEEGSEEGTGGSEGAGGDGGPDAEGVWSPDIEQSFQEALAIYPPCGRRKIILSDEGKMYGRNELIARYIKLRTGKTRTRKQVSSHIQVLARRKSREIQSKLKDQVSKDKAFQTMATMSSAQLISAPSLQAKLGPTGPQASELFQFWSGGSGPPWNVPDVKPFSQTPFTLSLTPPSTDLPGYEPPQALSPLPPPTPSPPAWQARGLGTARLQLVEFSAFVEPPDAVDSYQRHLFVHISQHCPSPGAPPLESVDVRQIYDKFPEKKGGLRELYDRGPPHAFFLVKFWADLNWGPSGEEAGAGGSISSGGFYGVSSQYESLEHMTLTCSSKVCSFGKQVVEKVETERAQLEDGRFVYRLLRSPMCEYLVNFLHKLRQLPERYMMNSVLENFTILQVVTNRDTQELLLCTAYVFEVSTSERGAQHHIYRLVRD
Chain of TEAD4 (Q15561 whole entry): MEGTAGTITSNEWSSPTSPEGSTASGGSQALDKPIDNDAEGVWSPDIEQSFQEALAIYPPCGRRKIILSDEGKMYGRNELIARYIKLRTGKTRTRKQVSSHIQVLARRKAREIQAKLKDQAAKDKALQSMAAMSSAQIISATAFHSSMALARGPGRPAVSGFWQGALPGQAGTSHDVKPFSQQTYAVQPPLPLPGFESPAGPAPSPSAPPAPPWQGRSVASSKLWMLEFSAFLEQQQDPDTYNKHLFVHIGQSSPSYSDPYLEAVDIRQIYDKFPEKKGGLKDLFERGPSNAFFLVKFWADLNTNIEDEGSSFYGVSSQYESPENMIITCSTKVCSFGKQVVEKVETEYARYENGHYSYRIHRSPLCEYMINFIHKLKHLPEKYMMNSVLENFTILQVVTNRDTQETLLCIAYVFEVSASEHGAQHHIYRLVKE
Chain of TEAD3 (Q99594 whole entry): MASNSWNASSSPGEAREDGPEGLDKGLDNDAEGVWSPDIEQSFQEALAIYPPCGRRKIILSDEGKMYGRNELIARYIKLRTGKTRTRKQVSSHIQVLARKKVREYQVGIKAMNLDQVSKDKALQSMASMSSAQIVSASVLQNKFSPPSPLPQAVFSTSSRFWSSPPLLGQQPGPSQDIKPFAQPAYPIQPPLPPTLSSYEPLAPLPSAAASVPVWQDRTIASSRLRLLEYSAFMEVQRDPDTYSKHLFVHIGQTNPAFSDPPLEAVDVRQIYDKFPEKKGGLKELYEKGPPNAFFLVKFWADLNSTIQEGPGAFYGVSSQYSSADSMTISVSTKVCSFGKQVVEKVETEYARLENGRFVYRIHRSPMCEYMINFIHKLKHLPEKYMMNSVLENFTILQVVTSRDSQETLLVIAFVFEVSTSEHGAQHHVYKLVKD

Compound: CNS(=O)(=O)c1ccc(Nc2ccc(C(F)(F)F)cc2)c(-c2cn(C)cn2)c1 [Compound 1-1, reference compound]
- EC50 [1]: < 200 nM
- TEAD1 ΔTm [2, 9]: 2 °C
- TEAD1 ΔTm [2, 10]: 8 °C
- thermal shift / binding across TEAD isoforms, in words ([2]; summary of Table 14 over TEAD1-4): pronounced thermal shift only for TEAD1
- TEAD2 ΔTm [3, 9]: 1 °C
- TEAD3 ΔTm [4, 9]: 0 °C
- TEAD4 ΔTm [5, 9]: 0 °C
- TEAD4 ΔTm [5, 10]: 1 °C
- T/C [6]: 12.51%
- TGI [6]: 87.49%
- Tumor Volume (mean ± SEM) [6]: 66.85 ± 12.17 mm^3

Compound: C[C@H](CO)NC(=O)c1cnc2c(C3=CCC(C(F)(F)F)CC3)cccc2c1 (single isomer, unassigned) [Compound 81]
- EC50 ([7]; 144 h): < 200 nM
- EC50 [8]: < 200 nM
- TEAD1 ΔTm [2, 9]: 9 °C
- TEAD1 ΔTm [2, 10]: 10 °C
- TEAD2 ΔTm [3, 9]: 2 °C
- TEAD2 ΔTm [3, 10]: 3 °C
- TEAD3 ΔTm [4, 9]: 4 °C
- TEAD3 ΔTm [4, 10]: 5 °C
- TEAD4 ΔTm [5, 9]: 5 °C
- TEAD4 ΔTm [5, 10]: 7 °C

Compound: COC[C@H](CO)NC(=O)c1cnc2c(C3=CCC(C(F)(F)F)CC3)cccc2c1 (single isomer, unassigned) [Compound 104]
- EC50 ([7]; 144 hours): < 200 nM
- EC50 [8]: < 200 nM

Compound: C[C@H](CO)NC(=O)c1cnc2c(C3=CCC(C(F)(F)F)CC3)cccc2c1 (single isomer, unassigned) [Compound 82]
- EC50 ([7]; 144 hours): 200 to 1000 nM
- EC50 [8]: < 200 nM

Compound: COC[C@H](CO)NC(=O)c1cnc2c(C3=CCC(C(F)(F)F)CC3)cccc2c1 (single isomer, unassigned) [Compound 103]
- EC50 ([7]; 144 h): < 200 nM
- EC50 [8]: < 200 nM
